Several values for one entry are separate records, joined by “and”; a condition that tells them apart may be missing. Identical values can stand only once. Like-named read-outs stand apart in the source and are kept apart here.
Assay: Plasma pharmacokinetics after IV or PO administration
Type: in vivo, SD Rat
Details: SD Rat; for concentration at 0.083 h / concentration at 0.25 h / concentration at 0.5 h: rat, iv
Procedure: Pirfenidone and Pegyonde-6 were administered at equimolar concentrations to rats IV or per os (PO) and serum concentrations measured at different time points to measure pharmacokinetic parameters. The drugs were solubilized in 5% Alcohol+20% PEG 300 in saline.

[1] = IV 40 mg/kg, individual rats 1-3, 40 mg/kg
[2] = PO 40 mg/kg, individual rats 7-9, 40 mg/kg

With `Cc1ccc(=O)n(-c2ccccc2)c1` [Pirfenidone, 5 methyl-1-phenyl-2-[H] pyridone] the “AUMC0-t, Mean” value (IV 40 mg/kg) was 11482 h*h*ng/mL, the “AUMC0-∞, Mean” value (IV 40 mg/kg) was 11490 h*h*ng/mL and the “CL(/F), Mean” value (IV 40 mg/kg) was 28.87 mL/min/kg. The “Vss (/F), Mean” value (IV 40 mg/kg) was 0.828 L/kg, the “Plasma concentrations of Pirfenidone” value (IV 40 mg/kg, 0.083 h, individual rats 1-3, 40 mg/kg) was 34700 ng/mL and 33600 ng/mL and the “Plasma concentrations of Pirfenidone” value (IV 40 mg/kg, 0.25 h, individual rats 1-3, 40 mg/kg) was 29300 ng/mL and 25600 ng/mL. For the same compound, the “Plasma concentrations of Pirfenidone” value (IV 40 mg/kg, 0.5 h, individual rats 1-3, 40 mg/kg) was 19800 ng/mL and 16100 ng/mL, the “Plasma concentrations of Pirfenidone” value (IV 40 mg/kg, 1 h, individual rats 1-3, 40 mg/kg) was 6130 ng/mL and 9860 ng/mL and 4840 ng/mL and the “Plasma concentrations of Pirfenidone” value (IV 40 mg/kg, 2 h, individual rats 1-3, 40 mg/kg) was 394 ng/mL and 712 ng/mL and 225 ng/mL. The “Plasma concentrations of Pirfenidone” value (IV 40 mg/kg, 4 h, individual rats 1-3, 40 mg/kg) was 6.12 ng/mL and 3.57 ng/mL, the “Plasma concentrations of Pirfenidone” value (IV 40 mg/kg, 8 h, individual rats 1-3, 40 mg/kg) was “BLOQ (Below lower limit of quantification (1 ng/mL))” and the “Plasma concentrations of Pirfenidone” value (IV 40 mg/kg, 24 h, individual rats 1-3) was “BLOQ (Below lower limit of quantification (1 ng/mL))”. For the same compound, the AUC0-t [1] was 27907 ng·h/mL and 21142 ng·h/mL, the “AUC0-∞” value [1] was 27910 ng·h/mL and 21144 ng·h/mL and the AUMC0-t [1] was 10270 h*h*ng/mL and 15155 h*h*ng/mL and 9021 h*h*ng/mL. The “AUMC0-∞” value [1] was 10277.2 h*h*ng/mL and 15166.3 h*h*ng/mL and 9027.6 h*h*ng/mL, the “CL(/F)” value [1] was 31.17 mL/min/kg and 23.88 mL/min/kg and 31.53 mL/min/kg and the Cmax [1] was 34700 ng/mL and 33600 ng/mL. The MRTINF [1] was 32.6 min and 25.6 min, the T1/2 [1] was 17 min and 17.3 min and the “Vss (/F)” value [1] was 0.898 L/kg and 0.779 L/kg and 0.808 L/kg. The “AUMC0-∞, Mean” value (PO 40 mg/kg) was 15669 h*h*ng/mL, the “Plasma concentrations of Pirfenidone” value (PO 40 mg/kg, 0.25 h, individual rats 7-9, 40 mg/kg) was 8330 ng/mL and 9540 ng/mL and the “Plasma concentrations of Pirfenidone” value (PO 40 mg/kg, 0.5 h, individual rats 7-9, 40 mg/kg) was 6700 ng/mL and 8820 ng/mL. For the same compound, the “Plasma concentrations of Pirfenidone” value (PO 40 mg/kg, 1 h, individual rats 7-9, 40 mg/kg) was 3540 ng/mL and 3570 ng/mL, the “Plasma concentrations of Pirfenidone” value (PO 40 mg/kg, 2 h, individual rats 7-9, 40 mg/kg) was 2000 ng/mL and 2140 ng/mL and the “Plasma concentrations of Pirfenidone” value (PO 40 mg/kg, 4 h, individual rats 7-9, 40 mg/kg) was 7.72 ng/mL and 830 ng/mL and 126 ng/mL. The “Plasma concentrations of Pirfenidone” value (PO 40 mg/kg, 24 h, individual rats 7-9) was “BLOQ (Below lower limit of quantification (1 ng/mL))”, the AUC0-t [2] was 12787 ng·h/mL and 12172 ng·h/mL and the “AUC0-∞” value [2] was 12820 ng·h/mL and 12353 ng·h/mL. For the same compound, the AUMC0-t [2] was 9588 h*h*ng/mL and 20769 h*h*ng/mL and 14572 h*h*ng/mL, the “AUMC0-∞” value [2] was 9604 h*h*ng/mL and 21076 h*h*ng/mL and 16326 h*h*ng/mL and the Cmax [2] was 8330 ng/mL and 9540 ng/mL. The MRTINF [2] was 98.64 min and 79.32 min, the T1/2 [2] was 18.8 min and 57.5 min and 70.38 min and the Tmax (Sprague-Dawley, plasma, IV 40 mg/kg, read-out: Tmax, Mean) was 4.98 min. It also gave a concentration at 0.083 h (Sprague-Dawley, plasma, 40 mg/kg, IV 40 mg/kg, 0.083 h, individual rats 1-3, read-out: Plasma concentrations of Pirfenidone) of 32900 ng/mL, a concentration at 0.083 h (Sprague-Dawley, plasma, 40 mg/kg, IV 40 mg/kg, 0.083 h, read-out: Plasma concentrations of Pirfenidone, Mean) of 33700 ng/mL and a concentration at 0.25 h (Sprague-Dawley, plasma, 40 mg/kg, IV 40 mg/kg, 0.25 h, individual rats 1-3, read-out: Plasma concentrations of Pirfenidone) of 21400 ng/mL. For the same compound, the concentration at 0.25 h (Sprague-Dawley, plasma, 40 mg/kg, IV 40 mg/kg, 0.25 h, read-out: Plasma concentrations of Pirfenidone, Mean) was 25400 ng/mL, the concentration at 0.5 h (Sprague-Dawley, plasma, 40 mg/kg, IV 40 mg/kg, 0.5 h, individual rats 1-3, read-out: Plasma concentrations of Pirfenidone) was 15800 ng/mL and the concentration at 0.5 h (Sprague-Dawley, plasma, 40 mg/kg, IV 40 mg/kg, 0.5 h, read-out: Plasma concentrations of Pirfenidone, Mean) was 17200 ng/mL.

From patent US12365651B2, “Use of pirfenidone and derivatives for modulation of B lymphocyte activity and organ protection from acute tissue damage” (Washington University, priority 2017, dated 2025)
